Test results: ChEMBL document CHEMBL4400510, “Synthesis and antitubercular evaluation of reduced lipophilic imidazo[1,2-a]pyridine-3-carboxamide derivatives” (Eur J Med Chem, 2019)

Legend:
[1] = test system: Mycobacterium tuberculosis; assay: Antitubercular activity against multi drug resistant Mycobacterium tuberculosis 16995 after 7 days by MABA method; format: functional; conditions: Mycobacterium tuberculosis, 16995, 168 h
[2] = test system: Mycobacterium tuberculosis; assay: Antitubercular activity against multi drug resistant Mycobacterium tuberculosis 16833 after 7 days by MABA method; format: functional; conditions: Mycobacterium tuberculosis, 16833, 168 h
[3] = Selectivity index, ratio of CC50 for African green monkey Vero cells to MIC>90 multi drug resistant Mycobacterium tuberculosis 16995; format: toxicity; conditions: read-out: Selectivity Index

| Structure (SMILES) | MIC90 [1] [µM] | MIC90 [2] [µM] | selectivity ratio [3] |
| --- | --- | --- | --- |
| CCc1nc2ccc(Cl)cn2c1C(=O)NCc1ccc(N2CC3CCC2CN3CC2CCCCC2)cc1 (configuration not stated) | < 0.035 | < 0.035 | – |
| CCc1nc2ccc(Cl)cn2c1C(=O)NCc1ccc(N2CCN(Cc3ccc(OC(F)(F)F)cc3)CC2)cc1 | < 0.035 | < 0.035 | – |
| O=c1nc(N2CCN(CC3CCCCC3)CC2)sc2c([N+](=O)[O-])cc(C(F)(F)F)cc12 [MACOZINONE] | < 0.035 | < 0.035 | – |
| CCc1nc2ccc(Cl)cn2c1C(=O)NCc1ccc(N2CC3CN(c4ccc(OC(F)(F)F)cc4)CC3C2)cc1 (configuration not stated) | < 0.035 | < 0.035 | – |
| CCc1nc2ccc(Cl)cn2c1C(=O)NCc1ccc(N2CCN(CC3CCCCC3)CC2)cc1 | < 0.035 | < 0.035 | > 1000 |
| CCc1nc2ccc(Cl)cn2c1C(=O)NCc1ccc(N2CC3CN(Cc4ccc(OC(F)(F)F)cc4)CC3C2)cc1 (configuration not stated) | < 0.035 | < 0.035 | > 586 |
| CCc1nc2ccc(Cl)cn2c1C(=O)NCc1ccc(N2CCC3(CC2)CCN(c2ccc(OC(F)(F)F)cc2)CC3)cc1 | < 0.035 | < 0.035 | > 1000 |
| NNC(=O)c1ccncc1 [ISONIAZID] | > 40 | > 40 | – |
| CO[C@H]1/C=C/O[C@@]2(C)Oc3c(C)c(O)c4c(O)c(c(/C=N/N5CCN(C)CC5)c(O)c4c3C2=O)NC(=O)/C(C)=C\C=C\[C@H](C)[C@H](O)[C@@H](C)[C@@H](O)[C@@H](C)[C@H](OC(C)=O)[C@@H]1C [RIFAMPIN] | > 40 | > 40 | – |
| CCc1nc2ccc(Cl)cn2c1C(=O)NCc1ccc(N2CC3CN(CC4CCCCC4)CC3C2)cc1 (configuration not stated) | < 0.035 | < 0.035 | > 1000 |
| CCc1nc2ccc(Cl)cn2c1C(=O)NCc1ccc(N2CCC(c3ccc(OC(F)(F)F)cc3)CC2)cc1 [TELACEBEC] | < 0.035 | < 0.035 | > 1000 |
